# Data published in ChEMBL document CHEMBL1938324 (Bioorg Med Chem Lett, 2012).
# Substitutions are numbered along the chain they refer to. Activity calls are given as the source filed them. The rule behind the calls is not given here.
# Target: T1, Muscarinic acetylcholine receptor M1 (Homo sapiens, UniProt P11229)
# T1 sequence (P11229 whole entry): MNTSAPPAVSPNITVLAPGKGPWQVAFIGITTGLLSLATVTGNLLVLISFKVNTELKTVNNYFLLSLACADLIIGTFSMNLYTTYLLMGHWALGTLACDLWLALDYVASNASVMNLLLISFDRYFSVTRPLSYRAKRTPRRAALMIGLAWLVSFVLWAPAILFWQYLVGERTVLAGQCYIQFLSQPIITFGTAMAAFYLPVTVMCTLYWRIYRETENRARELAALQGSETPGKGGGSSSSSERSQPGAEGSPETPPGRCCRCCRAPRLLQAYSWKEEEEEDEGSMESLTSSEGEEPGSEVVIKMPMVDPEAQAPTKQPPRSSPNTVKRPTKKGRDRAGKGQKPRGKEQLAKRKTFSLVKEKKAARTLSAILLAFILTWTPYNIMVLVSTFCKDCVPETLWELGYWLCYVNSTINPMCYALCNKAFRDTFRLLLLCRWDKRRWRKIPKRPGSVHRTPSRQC
# Experiment: Antagonist activity at human muscarinic M1 receptor expressed in CHO cells assessed as inhibition of acetylcholine-induced calcium mobilization by fluorescence assay
# Type: functional, cell-based
# Conditions: not given
row,SMILES,IC50
1,Cc1ccc2nonc2c1S(=O)(=O)NCCC(=O)N1CCN(c2ccncc2)CC1,> 10 µM
2,CC(=O)Nc1nc(C)c(S(=O)(=O)NCCC(=O)N2CCN(c3ccc(Br)cn3)CC2)s1,> 10 µM
3,O=C(CCNS(=O)(=O)c1cccc2cccnc12)N1CCN(c2ccc(Br)cn2)CC1,> 10 µM
4,O=C(CCNS(=O)(=O)c1cccc2nsnc12)N1CCN(c2nccs2)CC1,> 10 µM
5,O=C(CCNS(=O)(=O)c1cccc2scnc12)N1CCN(c2ccncc2)CC1,> 10 µM
6,Cc1cnccc1N1CCN(C(=O)CCNS(=O)(=O)c2cccc3nsnc23)CC1,2 µM
7,O=C(CCNS(=O)(=O)c1cccc2nsnc12)N1CCN(c2ccccn2)CC1,> 10 µM
8,O=C(CCNS(=O)(=O)c1cccc2nonc12)N1CCN(c2ccncc2)CC1,2.6 µM
9,O=C(CCNS(=O)(=O)c1cccc2nsnc12)N1CCN(c2cccc(F)n2)CC1,> 10 µM
10,Cc1ccc2nonc2c1S(=O)(=O)NCCC(=O)N1CCN(c2ccc(Br)cn2)CC1,> 10 µM
11,O=C(CCNS(=O)(=O)c1cccc2nsnc12)N1CCN(c2cc(Cl)ccn2)CC1,4.5 µM
12,O=C(CCNS(=O)(=O)c1ccc2nsnc2c1)N1CCN(c2ccncc2)CC1,> 10 µM
13,O=C(CCNS(=O)(=O)c1ccc(F)c2nonc12)N1CCN(c2ccc(Br)cn2)CC1,4.8 µM
14,O=C(CCNS(=O)(=O)c1cccc2ccccc12)N1CCN(c2ccc(Br)cn2)CC1,> 10 µM
15,O=C(CCNS(=O)(=O)c1cccc2ncccc12)N1CCN(c2ccc(Br)cn2)CC1,2.1 µM
16,O=C(CCNS(=O)(=O)c1cccc2nsnc12)N1CCN(c2ccnc(Cl)c2)CC1,> 10 µM
17,O=S(=O)(NCCCN1CCN(c2ccncc2)CC1)c1cccc2nsnc12,> 10 µM
18,O=C(CCNS(=O)(=O)c1cccc2ncccc12)N1CCN(c2ccncc2)CC1,0.4 µM

row,SMILES,IC50
1,O=C(CCNS(=O)(=O)c1cccc2nsnc12)N1CCN(c2nc3ccccc3o2)CC1,> 10 µM
2,O=C(CCNS(=O)(=O)c1cccc2nsnc12)N1CCN(c2cccc(Cl)n2)CC1,> 10 µM
3,O=C(CCNS(=O)(=O)c1cccc(-n2cnnn2)c1)N1CCN(c2ccncc2)CC1,> 10 µM
4,CN(CCC(=O)N1CCN(c2ccncc2)CC1)S(=O)(=O)c1cccc2nsnc12,> 10 µM
5,O=C(CCNS(=O)(=O)c1cccc2nsnc12)N1CCN(c2ccncc2)CC1,0.69 µM
6,Cc1ccc2nsnc2c1S(=O)(=O)NCCC(=O)N1CCN(c2ccncc2)CC1,> 10 µM
7,O=C(CCNS(=O)(=O)c1cccc2nonc12)N1CCN(c2ccc(Br)cn2)CC1,1.1 µM
8,COc1cccc(S(=O)(=O)NCCC(=O)N2CCN(c3ccc(Br)cn3)CC2)c1,> 10 µM
9,O=C(CCNS(=O)(=O)c1cccc2nsnc12)N1CCN(c2ncccn2)CC1,> 10 µM
10,O=C(CCNS(=O)(=O)c1cccc2nsnc12)N1CCN(c2ccc(Br)cn2)CC1,0.32 µM
11,O=C(CCNS(=O)(=O)c1cccnc1)N1CCN(c2ccncc2)CC1,> 10 µM
12,O=C(CCNS(=O)(=O)c1cccc2nsnc12)N1CCN(c2nc3ccccc3s2)CC1,> 10 µM
13,O=C(CCNS(=O)(=O)c1cccc2nsnc12)N1CCN(c2ccnc(F)c2)CC1,> 10 µM
14,CN(C)c1cccc2c(S(=O)(=O)NCCC(=O)N3CCN(c4ccncc4)CC3)cccc12,> 10 µM
15,Cc1ccnc(N2CCN(C(=O)CCNS(=O)(=O)c3cccc4nsnc34)CC2)c1,> 10 µM
16,O=C(CCNS(=O)(=O)c1cccc2nsnc12)N1CCN(c2ncc(Cl)cn2)CC1,> 10 µM
17,Cc1cccc(N2CCN(C(=O)CCNS(=O)(=O)c3cccc4nsnc34)CC2)n1,> 10 µM
18,O=C(CCNS(=O)(=O)c1c(Cl)ccc2nonc12)N1CCN(c2ccc(Br)cn2)CC1,> 10 µM

# Target: T2, Muscarinic acetylcholine receptor M2 (Homo sapiens, UniProt P08172)
# T2 sequence (P08172 whole entry): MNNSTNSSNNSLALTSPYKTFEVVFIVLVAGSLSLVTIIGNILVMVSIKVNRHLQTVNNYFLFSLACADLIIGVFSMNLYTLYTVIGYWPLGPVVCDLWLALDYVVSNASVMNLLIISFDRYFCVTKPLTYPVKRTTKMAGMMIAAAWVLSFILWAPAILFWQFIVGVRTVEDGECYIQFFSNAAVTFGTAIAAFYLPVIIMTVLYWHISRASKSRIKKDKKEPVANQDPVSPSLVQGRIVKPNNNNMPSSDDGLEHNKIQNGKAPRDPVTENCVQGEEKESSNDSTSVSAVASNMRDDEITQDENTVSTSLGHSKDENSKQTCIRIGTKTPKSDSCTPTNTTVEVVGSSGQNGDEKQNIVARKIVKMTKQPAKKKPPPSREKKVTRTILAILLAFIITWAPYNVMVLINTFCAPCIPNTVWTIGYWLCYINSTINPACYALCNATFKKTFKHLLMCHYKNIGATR
# Experiment: Antagonist activity at human muscarinic M2 receptor expressed in CHO cells assessed as inhibition of acetylcholine-induced calcium mobilization by fluorescence assay
# Type: functional, cell-based
# Conditions: not given
row,SMILES,IC50
1,O=C(CCNS(=O)(=O)c1cccc2ncccc12)N1CCN(c2ccncc2)CC1,> 30 µM

# System: not listed separately
# Experiment: Clearance in iv dosed Sprague-Dawley rat
# Type: ADME, organism-based
# Conditions: in vivo
row,SMILES,clearance
1,O=C(CCNS(=O)(=O)c1cccc2ncccc12)N1CCN(c2ccncc2)CC1,77 mL/min/kg

# Target: T3, Muscarinic acetylcholine receptor M1 (Rattus norvegicus, UniProt P08482)
# T3 sequence (P08482 whole entry): T1 sequence (P11229 whole entry) with A5V, T254S, P309S, R320K, A337G, I413V
# Experiment: Antagonist activity at rat muscarinic M1 receptor expressed in CHO cells assessed as inhibition of acetylcholine-induced calcium mobilization by fluorescence assay
# Type: functional, cell-based
# Conditions: not given
row,SMILES,IC50
1,O=C(CCNS(=O)(=O)c1cccc2ncccc12)N1CCN(c2ccncc2)CC1,0.18 µM
2,O=C(CCNS(=O)(=O)c1cccc2nsnc12)N1CCN(c2ccncc2)CC1,0.24 µM

# Target: T4, Muscarinic acetylcholine receptor M1 (Homo sapiens) (UniProt P11229)
# T4 sequence (whole entry): T1 sequence (P11229 whole entry)
# Experiment: Inhibition of human muscarinic M1 receptor expressed in CHO cells assessed as inhibition of acetylcholine-induced calcium mobilization at 30 uM by fluorescence assay
# Type: functional, cell-based
# Conditions: not given
row,SMILES,inhibition
1,C[C@@H](CC(=O)N1CCN(c2ccncc2)CC1)NS(=O)(=O)c1cccc2nonc12,30%
2,C[C@H](CC(=O)N1CCN(c2ccncc2)CC1)NS(=O)(=O)c1cccc2nonc12,inactive

# Target: Muscarinic acetylcholine receptor M3 (Homo sapiens, UniProt P20309)
# Sequence (P20309 whole entry): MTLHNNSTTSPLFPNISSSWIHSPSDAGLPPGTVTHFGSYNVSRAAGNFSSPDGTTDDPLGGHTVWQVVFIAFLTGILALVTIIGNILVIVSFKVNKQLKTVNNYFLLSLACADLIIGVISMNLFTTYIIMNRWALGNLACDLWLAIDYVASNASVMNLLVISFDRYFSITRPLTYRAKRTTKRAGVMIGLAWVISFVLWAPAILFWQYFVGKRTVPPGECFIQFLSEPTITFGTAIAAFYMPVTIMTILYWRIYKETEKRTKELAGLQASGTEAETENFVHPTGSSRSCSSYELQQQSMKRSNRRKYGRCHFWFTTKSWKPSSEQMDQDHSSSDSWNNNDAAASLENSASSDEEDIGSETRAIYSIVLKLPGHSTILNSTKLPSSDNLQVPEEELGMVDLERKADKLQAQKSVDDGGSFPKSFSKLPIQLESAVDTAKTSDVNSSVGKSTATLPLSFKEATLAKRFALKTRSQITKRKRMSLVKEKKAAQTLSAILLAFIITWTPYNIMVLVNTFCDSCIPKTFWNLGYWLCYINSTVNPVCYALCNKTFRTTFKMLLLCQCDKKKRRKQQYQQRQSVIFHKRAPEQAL
# Experiment: Antagonist activity at human muscarinic M3 receptor expressed in CHO cells assessed as inhibition of acetylcholine-induced calcium mobilization by fluorescence assay
# Type: functional, cell-based
# Conditions: not given
row,SMILES,IC50
1,O=C(CCNS(=O)(=O)c1cccc2ncccc12)N1CCN(c2ccncc2)CC1,> 30 µM

# Target: T4, Muscarinic acetylcholine receptor M1 (Homo sapiens)
# Experiment: Antagonist activity at human muscarinic M1 receptor expressed in CHO cells assessed as residual activity at 30 uM by fluorescence assay
# Type: functional, cell-based
# Conditions: not given
row,SMILES,Activity
1,O=S(=O)(NCCCN1CCN(c2ccncc2)CC1)c1cccc2nsnc12,17%
2,O=C(C(F)CNS(=O)(=O)c1cccc2nonc12)N1CCN(c2ccncc2)CC1 (racemic),25%

# Target: T5, Muscarinic acetylcholine receptor M4 (Homo sapiens, UniProt P08173)
# T5 sequence (P08173 whole entry): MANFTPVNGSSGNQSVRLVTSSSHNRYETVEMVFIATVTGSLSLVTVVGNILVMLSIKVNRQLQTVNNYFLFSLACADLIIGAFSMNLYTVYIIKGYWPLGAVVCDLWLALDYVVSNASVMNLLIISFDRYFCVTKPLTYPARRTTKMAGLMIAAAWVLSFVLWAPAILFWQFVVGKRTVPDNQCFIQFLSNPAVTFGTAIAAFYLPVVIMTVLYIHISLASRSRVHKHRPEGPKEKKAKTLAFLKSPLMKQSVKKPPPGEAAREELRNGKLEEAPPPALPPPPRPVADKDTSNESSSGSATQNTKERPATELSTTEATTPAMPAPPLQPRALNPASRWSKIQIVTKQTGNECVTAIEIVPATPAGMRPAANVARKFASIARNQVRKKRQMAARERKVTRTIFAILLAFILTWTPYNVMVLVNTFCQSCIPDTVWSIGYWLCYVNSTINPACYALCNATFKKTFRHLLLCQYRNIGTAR
# Experiment: Antagonist activity at human muscarinic M4 receptor expressed in CHO cells assessed as inhibition of acetylcholine-induced calcium mobilization by fluorescence assay
# Type: functional, cell-based
# Conditions: not given
row,SMILES,IC50
1,O=C(CCNS(=O)(=O)c1cccc2ncccc12)N1CCN(c2ccncc2)CC1,> 30 µM

# Target: T4, Muscarinic acetylcholine receptor M1 (Homo sapiens)
# Experiment: Ratio of ML012 IC50 to compound IC50 for human muscarinic M1 receptor
# Conditions: not given
row,SMILES,Ratio IC50
1,O=C(CCNS(=O)(=O)c1cccc2nsnc12)N1CCN(c2ccc(Br)cn2)CC1,2

# System: not listed separately
# Experiment: Oral bioavailability in Sprague-Dawley rat at 10 mg/kg
# Type: ADME, organism-based
# Conditions: in vivo
row,SMILES,bioavailability
1,O=C(CCNS(=O)(=O)c1cccc2ncccc12)N1CCN(c2ccncc2)CC1,< 10%

# System: Rattus norvegicus
# Experiment: Half life in iv dosed Sprague-Dawley rat
# Type: ADME, organism-based
# Conditions: in vivo
row,SMILES,t1/2
1,O=C(CCNS(=O)(=O)c1cccc2ncccc12)N1CCN(c2ccncc2)CC1,40 min

# Target: T6, Muscarinic acetylcholine receptor M5 (Homo sapiens, UniProt P08912)
# T6 sequence (P08912 whole entry): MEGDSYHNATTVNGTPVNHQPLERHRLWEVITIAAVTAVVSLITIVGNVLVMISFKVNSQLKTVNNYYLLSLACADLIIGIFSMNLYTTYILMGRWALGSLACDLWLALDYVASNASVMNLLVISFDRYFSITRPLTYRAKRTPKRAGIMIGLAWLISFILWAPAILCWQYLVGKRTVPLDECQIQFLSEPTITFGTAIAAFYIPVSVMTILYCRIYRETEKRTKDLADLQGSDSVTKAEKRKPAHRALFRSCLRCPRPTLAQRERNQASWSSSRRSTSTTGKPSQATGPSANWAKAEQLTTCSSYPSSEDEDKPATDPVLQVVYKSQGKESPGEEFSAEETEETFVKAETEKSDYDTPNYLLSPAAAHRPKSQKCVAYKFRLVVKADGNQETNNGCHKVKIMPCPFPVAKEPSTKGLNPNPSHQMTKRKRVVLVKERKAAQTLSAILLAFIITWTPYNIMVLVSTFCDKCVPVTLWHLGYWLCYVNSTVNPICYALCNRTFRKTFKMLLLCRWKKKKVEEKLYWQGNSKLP
# Experiment: Antagonist activity at human muscarinic M5 receptor expressed in CHO cells assessed as inhibition of acetylcholine-induced calcium mobilization by fluorescence assay
# Type: functional, cell-based
# Conditions: not given
row,SMILES,IC50
1,O=C(CCNS(=O)(=O)c1cccc2ncccc12)N1CCN(c2ccncc2)CC1,> 30 µM
